According to ChEMBL document CHEMBL1201862, “PubChem BioAssay data set” (2004):
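All cell lines were grown in 96-well plates and treated with compound for 48 hours. The concentration for 50% growth inhibition is given as GI50.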 Calls of active or inactive are those of the source. Cut-off read from the data, not from the text of the source: active = GI50 up to about 1.1 µM and inactive = higher.

Legend:
Experiment in all cases: NCI-60 cell line screen, 48 h
[1] = tested on: SF-295
[2] = tested on: EKVX
[3] = tested on: A549
[4] = tested on: SK-MEL-28
[5] = tested on: SF-268
[6] = tested on: UO-31
[7] = tested on: SN12C
[8] = tested on: SNB-75
[9] = tested on: LOX IMVI
[10] = tested on: NCI-H226
[11] = tested on: SNB-19
[12] = tested on: DMS-114
[13] = tested on: M14
[14] = tested on: K562
[15] = tested on: COLO 205
[16] = tested on: RXF 393
[17] = tested on: UACC-257
[18] = tested on: Malme-3M

Measured: GI50

Cn1cnc([N+](=O)[O-])c1Sc1nc2ccccc2[nH]1
inactive: [1] > 100 µM | [2] 14.1 µM | [3] 19.4 µM | [4] 13.1 µM | [5] 14.3 µM | [6] 19.9 µM | [7] 14.7 µM | [8] 18.4 µM | [9] 22.7 µM | [10] 28.7 µM | [11] > 10 µM | [12] 8.26 µM | [13] 24.2 µM | [14] 20.3 µM | [15] 10.4 µM | [16] 11.4 µM | [17] 15.1 µM | [18] 16.3 µM

CC1(C)O[C@@H](CCl)C[C@H](C#N)O1
inactive: [1] > 100 µM | [2] > 100 µM | [3] > 100 µM | [4] > 100 µM | [5] > 100 µM | [6] > 100 µM | [7] > 100 µM | [8] > 100 µM | [9] > 100 µM | [10] 97.1 µM | [11] > 100 µM | [12] > 100 µM | [13] > 100 µM | [14] > 100 µM | [15] > 100 µM | [16] > 100 µM | [17] > 100 µM | [18] > 100 µM

O=C1OC2C(O)COC2(O)C1(O)Cc1c[nH]c2ccccc12 (configuration not stated)
inactive: [1] > 100 µM | [2] > 100 µM | [3] > 100 µM | [5] > 100 µM | [6] > 100 µM | [7] > 100 µM | [8] > 100 µM | [9] > 100 µM | [10] > 100 µM | [11] > 100 µM | [12] > 100 µM | [13] > 100 µM | [14] > 100 µM | [15] > 100 µM | [16] > 100 µM | [17] > 100 µM | [18] > 100 µM

Cc1cccc(C(C)C)c1NC(=O)C(=O)C(C(=O)c1ccccc1F)C1OC(=O)c2ccccc21 (configuration not stated)
inactive: [2] 32.7 µM | [3] 37.5 µM | [4] 14.4 µM | [5] 9.64 µM | [6] 16.8 µM | [7] 16.6 µM | [8] 9.75 µM | [9] 13.4 µM | [10] 3.25 µM | [11] 10.8 µM | [12] 10.2 µM | [13] 16.8 µM | [14] 20.4 µM | [15] 21.1 µM | [16] 11.4 µM | [17] 13 µM | [18] 9.82 µM

CN(C)CCNC(=O)c1cccc2c(=O)c3ccccc3oc12
inactive: [1] 30.3 µM | [2] > 66.1 µM | [3] 39 µM | [4] 33.7 µM | [5] 45.2 µM | [6] 18.1 µM | [7] 24.3 µM | [8] 32.4 µM | [9] 20.7 µM | [10] 25.2 µM | [11] 36.9 µM | [12] 28.1 µM | [14] 40.8 µM | [15] 13.1 µM | [16] 43.1 µM | [17] 26.9 µM | [18] 25 µM

O=C1OCC/C1=N/O
inactive: [1] > 100 µM | [2] > 100 µM | [3] > 100 µM | [4] > 100 µM | [5] > 100 µM | [6] > 100 µM | [7] > 100 µM | [8] > 100 µM | [10] > 100 µM | [12] > 100 µM | [13] > 100 µM | [14] > 100 µM | [15] > 100 µM | [16] > 100 µM | [17] > 100 µM | [18] > 100 µM

CC(C)=CC(=O)CC(=O)C(=O)Nc1ccc(Cl)c(Cl)c1
inactive: [1] > 100 µM | [2] > 100 µM | [3] > 100 µM | [4] > 100 µM | [5] > 100 µM | [6] > 100 µM | [7] > 100 µM | [8] > 100 µM | [10] > 100 µM | [11] > 100 µM | [12] > 100 µM | [13] > 100 µM | [14] > 100 µM | [15] > 100 µM | [16] > 100 µM | [17] > 100 µM | [18] > 100 µM

Nc1nc(SCCC/C=C/I)nc2c1ncn2C1OC(COP(=O)(O)O)C(O)C1O (configuration not stated)
inactive: [1] > 100 µM | [2] > 100 µM | [3] > 100 µM | [4] > 100 µM | [5] > 100 µM | [7] > 100 µM | [8] > 100 µM | [9] > 100 µM | [10] > 100 µM | [11] > 100 µM | [12] > 100 µM | [13] > 100 µM | [14] > 100 µM | [15] > 100 µM | [16] > 100 µM | [17] > 100 µM | [18] > 100 µM
